Reference: patent US20150159131A1, “METHODS AND COMPOSITIONS FOR REGULATING MUSASHI FUNCTION” (Board of Trustees of the University of Arkansas, priority 2011, published 2015)

Experiments:
Type in all cases: cell-based, Xenopus
Mos mRNA = assay: Polyadenylation assay of endogenous Mos mRNA (RNA ligation-coupled PCR)
From the text: The increase in PCR product length is specifically due to extension of the poly[A] tail. The primer used to analyze endogenous Xenopus Musashi1 mRNA polyadenylation was [NT] ID NO:24).

Musashi1 protein = assay: Western blot for endogenous Musashi1 protein accumulation at GVBD50; conditions: at GVBD50, normalized to tubulin, 3 experiments, p<0.01
Protocol: Oocytes were lysed in NP40 lysis buffer containing sodium vanadate and a protease inhibitor cocktail. Where indicated, a portion of the lysate was transferred to STAT-60 for RNA extraction. Protein lysates were then spun, clarified and transferred immediately to 1× sample buffer. The lysates were run on a 10% Nupage gel and transferred to a 0.2 μm-pore-size nitrocellulose filter. The membrane was blocked with 1% bovine serum albumin in TBST for 60 min at room temperature. Following incubation with primary antibody, filters were incubated with horseradish peroxidase conjugated secondary antibody using enhanced chemiluminescence in a Fluorchem 8000 Advanced Imager. To determine if Musashi is regulated by progesterone, Musashi levels were detected in progesterone stimulated oocytes using methods described in Example 1. […] Lysates from oocytes treated with or without progesterone were analyzed by western blot for endogenous Musashi1 protein accumulation at GVBD50. Quantifications of fold changes in Musashi1 levels (as indicated below western) were normalized to tubulin from the same sample, and levels in immature oocytes (Imm) arbitrarily set to 1.0. The bar graph of FIG. 1B represents data from 3 independent experiments with S.E.M. (Student's t-test; p<0.01).

[1] = system: Musashi1 S322 phosphorylation; assay: Western blot for S322-phosphorylated Musashi1 in oocyte lysates
Protocol: Xenopus oocytes were isolated and cultured. Oocytes were induced to mature with 2 μg/ml progesterone. The rate of germinal vesicle breakdown (GVBD) was scored morphologically by observing the appearance of a white spot on the animal pole. Because oocytes from different frogs mature at different rates in response to progesterone, the culture times were standardized between experiments to the time taken for 50% of oocytes to undergo GVBD. Where indicated, oocytes were pre-treated with 50 μM MEK inhibitor, UO126 or DMSO vehicle for 30 minutes.
Antisera for phosphorylation specific Musashi1 S322 were generated by immunizing rabbits with the peptide VSSYISAAS(phospho)PAPSTGF (SEQ ID NO:26). The antibodies were affinity purified through a peptide-affinity column and used at 1:1000. Abcam antibodies to Musashi1 were used at 1:1000. Sigma Tubulin antibodies were used at 1:20,000. The phospho-specific Cdc2 antibody was used at 1:1000 and detects the inhibitory Tyr15 phosphorylation. The phospho-specific MAP kinase antibody (Cell Signaling) was used at 1:1000 and detects the activating phosphorylations at Thr202/Tyr204. The GST antibody (Santa Cruz) was used at 1:1000. The Xenopus Ringo antibody was used at 1:1000.
Oocytes were lysed in NP40 lysis buffer containing sodium vanadate and a protease inhibitor cocktail. Where indicated, a portion of the lysate was transferred to STAT-60 for RNA extraction. […]

| SMILES | time at which Mos mRNA polyadenylation initiates after progesterone stimulation (Mos mRNA; oocytes expressing GST-Musashi) | Musashi protein levels in response to progesterone stimulation (Musashi1 protein) | maximum progesterone-induced change in phospho-Musashi1 levels normalized to tubulin, relative to immature oocytes ([1]; uninjected oocytes, endogenous Musashi1, n=4, p<0.05) | effect on initial polyadenylation or translation of the Mos mRNA (Mos mRNA; oocytes treated with MAP kinase signaling inhibitor) | effect on progesterone-stimulated Musashi S322 phosphorylation ([1]; oocytes expressing GST-Musashi1, progesterone stimulated) |
| --- | --- | --- | --- | --- | --- |
| CC(=O)[C@H]1CC[C@H]2[C@@H]3CCC4=CC(=O)CC[C@]4(C)[C@H]3CC[C@]12C [progesterone] | approximately 3 hours | increase | 1.25+/−0.11 fold | – | – |
| N#CC(=C(/N)Sc1ccccc1N)/C(C#N)=C(/N)Sc1ccccc1N [UO126] | – | – | – | does not prevent | significant attenuation |
